ChEMBL document CHEMBL1139092, “Challenges in the development of mGluR5 positive allosteric modulators: the discovery of CPPHA” (Bioorg Med Chem Lett, 2007)

Key:
Format in all cases: cell-based
[1] = target: T1, Metabotropic glutamate receptor 5 (Homo sapiens, UniProt P41594); test: Activity at human mGluR5 expressed in CHO cells assessed as potentiation of glutamate response by FLIPR assay relative to glutamate
Target sequence in this assay (P41594 21-1212 limits assumed): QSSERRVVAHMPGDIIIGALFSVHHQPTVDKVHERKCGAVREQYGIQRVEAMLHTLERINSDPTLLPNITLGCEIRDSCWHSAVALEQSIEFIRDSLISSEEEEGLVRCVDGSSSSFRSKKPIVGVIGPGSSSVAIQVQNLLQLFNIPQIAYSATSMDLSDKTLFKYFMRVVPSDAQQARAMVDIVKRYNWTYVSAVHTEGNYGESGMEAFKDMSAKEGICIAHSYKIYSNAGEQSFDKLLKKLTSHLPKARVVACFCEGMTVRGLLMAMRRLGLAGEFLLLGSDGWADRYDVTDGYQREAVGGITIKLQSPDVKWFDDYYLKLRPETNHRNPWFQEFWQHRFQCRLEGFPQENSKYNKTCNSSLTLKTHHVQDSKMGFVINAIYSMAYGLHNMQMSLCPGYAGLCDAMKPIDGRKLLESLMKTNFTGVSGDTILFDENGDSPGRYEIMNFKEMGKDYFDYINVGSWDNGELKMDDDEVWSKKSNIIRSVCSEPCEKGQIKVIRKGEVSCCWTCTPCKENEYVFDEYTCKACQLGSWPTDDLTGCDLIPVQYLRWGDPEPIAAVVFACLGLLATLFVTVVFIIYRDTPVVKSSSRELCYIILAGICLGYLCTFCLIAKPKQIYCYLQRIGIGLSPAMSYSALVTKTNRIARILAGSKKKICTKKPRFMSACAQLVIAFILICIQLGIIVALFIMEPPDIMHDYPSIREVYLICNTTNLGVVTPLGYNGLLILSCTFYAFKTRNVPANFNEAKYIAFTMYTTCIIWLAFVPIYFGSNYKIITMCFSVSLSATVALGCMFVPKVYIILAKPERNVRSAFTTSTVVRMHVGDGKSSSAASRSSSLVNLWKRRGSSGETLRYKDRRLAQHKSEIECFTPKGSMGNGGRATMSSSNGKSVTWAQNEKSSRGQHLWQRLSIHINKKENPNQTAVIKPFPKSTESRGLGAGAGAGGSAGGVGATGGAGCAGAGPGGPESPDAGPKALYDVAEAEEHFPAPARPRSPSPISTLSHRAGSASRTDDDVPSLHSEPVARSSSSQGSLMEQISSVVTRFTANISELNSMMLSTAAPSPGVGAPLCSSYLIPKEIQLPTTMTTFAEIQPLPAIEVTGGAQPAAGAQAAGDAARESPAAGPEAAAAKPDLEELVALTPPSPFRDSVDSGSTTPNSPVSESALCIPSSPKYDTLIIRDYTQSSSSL

[2] = target: T1, Metabotropic glutamate receptor 5; test: Activity at human mGluR5 expressed in CHO cells assessed as potentiation of glutamate response by FLIPR assay
Target sequence in this assay (P41594 whole entry): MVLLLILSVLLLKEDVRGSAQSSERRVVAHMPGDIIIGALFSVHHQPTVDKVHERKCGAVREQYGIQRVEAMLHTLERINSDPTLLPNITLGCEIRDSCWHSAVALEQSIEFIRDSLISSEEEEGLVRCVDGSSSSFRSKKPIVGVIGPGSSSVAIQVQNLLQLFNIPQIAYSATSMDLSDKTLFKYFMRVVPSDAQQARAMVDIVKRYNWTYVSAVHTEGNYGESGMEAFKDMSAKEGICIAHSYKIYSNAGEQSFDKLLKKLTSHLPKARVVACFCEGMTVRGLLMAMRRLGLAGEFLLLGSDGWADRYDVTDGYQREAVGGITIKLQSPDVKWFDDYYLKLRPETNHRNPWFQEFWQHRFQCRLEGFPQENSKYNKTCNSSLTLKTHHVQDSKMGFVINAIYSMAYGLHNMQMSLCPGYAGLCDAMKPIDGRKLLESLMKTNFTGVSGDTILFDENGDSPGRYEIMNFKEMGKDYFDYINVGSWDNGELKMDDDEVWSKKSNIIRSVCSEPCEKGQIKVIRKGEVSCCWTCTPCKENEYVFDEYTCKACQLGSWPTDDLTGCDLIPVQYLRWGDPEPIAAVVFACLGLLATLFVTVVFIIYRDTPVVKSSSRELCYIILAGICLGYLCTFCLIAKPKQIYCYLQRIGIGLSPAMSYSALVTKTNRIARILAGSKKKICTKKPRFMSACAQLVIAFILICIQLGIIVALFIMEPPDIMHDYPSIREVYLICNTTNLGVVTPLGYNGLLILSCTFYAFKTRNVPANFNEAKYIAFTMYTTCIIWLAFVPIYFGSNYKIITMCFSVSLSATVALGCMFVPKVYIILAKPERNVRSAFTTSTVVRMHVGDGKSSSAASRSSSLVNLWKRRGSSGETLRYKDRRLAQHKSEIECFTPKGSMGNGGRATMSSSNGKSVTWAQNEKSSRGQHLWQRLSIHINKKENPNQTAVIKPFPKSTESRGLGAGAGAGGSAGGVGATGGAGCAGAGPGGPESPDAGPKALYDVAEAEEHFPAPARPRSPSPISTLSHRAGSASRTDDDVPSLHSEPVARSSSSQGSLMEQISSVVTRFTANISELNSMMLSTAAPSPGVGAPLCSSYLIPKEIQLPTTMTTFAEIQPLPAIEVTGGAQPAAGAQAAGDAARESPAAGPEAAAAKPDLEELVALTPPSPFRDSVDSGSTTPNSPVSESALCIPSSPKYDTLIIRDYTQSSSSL

[3] = target: Metabotropic glutamate receptor 5 (Rattus norvegicus, UniProt P31424); test: Activity at rat mGluR5 expressed in CHO cells assessed as potentiation of glutamate response by FLIPR assay
Chain of Metabotropic glutamate receptor 5 (Rattus norvegicus, UniProt P31424) (P31424 whole entry): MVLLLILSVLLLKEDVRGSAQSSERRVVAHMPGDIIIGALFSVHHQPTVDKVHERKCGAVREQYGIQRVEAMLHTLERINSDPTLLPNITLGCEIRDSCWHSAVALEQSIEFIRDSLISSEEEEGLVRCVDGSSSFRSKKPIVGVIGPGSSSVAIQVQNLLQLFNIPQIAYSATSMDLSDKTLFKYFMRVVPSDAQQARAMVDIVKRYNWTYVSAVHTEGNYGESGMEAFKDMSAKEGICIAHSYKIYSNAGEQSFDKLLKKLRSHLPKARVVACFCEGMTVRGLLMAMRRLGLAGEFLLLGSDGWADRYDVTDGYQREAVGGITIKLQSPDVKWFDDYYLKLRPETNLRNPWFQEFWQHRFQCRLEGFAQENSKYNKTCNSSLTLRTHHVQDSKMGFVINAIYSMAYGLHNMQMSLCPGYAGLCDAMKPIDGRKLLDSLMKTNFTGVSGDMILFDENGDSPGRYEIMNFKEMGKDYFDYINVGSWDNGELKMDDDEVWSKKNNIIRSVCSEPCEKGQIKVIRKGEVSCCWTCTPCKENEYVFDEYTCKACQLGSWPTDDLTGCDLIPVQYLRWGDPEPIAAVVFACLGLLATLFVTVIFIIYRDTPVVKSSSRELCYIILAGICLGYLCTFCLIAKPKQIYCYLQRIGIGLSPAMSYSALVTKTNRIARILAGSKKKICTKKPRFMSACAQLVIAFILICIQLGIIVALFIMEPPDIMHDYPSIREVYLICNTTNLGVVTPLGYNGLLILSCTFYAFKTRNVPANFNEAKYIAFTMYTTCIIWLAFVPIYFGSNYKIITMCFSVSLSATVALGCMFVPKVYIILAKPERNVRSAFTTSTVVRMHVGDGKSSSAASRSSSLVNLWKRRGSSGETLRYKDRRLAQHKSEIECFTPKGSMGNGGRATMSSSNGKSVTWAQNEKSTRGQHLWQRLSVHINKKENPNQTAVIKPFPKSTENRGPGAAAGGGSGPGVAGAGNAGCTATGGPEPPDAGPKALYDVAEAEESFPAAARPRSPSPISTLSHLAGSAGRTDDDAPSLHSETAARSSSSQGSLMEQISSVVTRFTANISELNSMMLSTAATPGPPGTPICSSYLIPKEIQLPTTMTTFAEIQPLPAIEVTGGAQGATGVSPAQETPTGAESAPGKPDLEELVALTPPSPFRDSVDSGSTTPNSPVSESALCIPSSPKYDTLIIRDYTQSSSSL

Structure (SMILES): O=C(Nc1ccc(Br)cc1CN1C(=O)c2ccc(F)cc2C1=O)c1ccccn1
- Activity [1]: 11.1
- EC50 [2]: 930 nM

Structure (SMILES): CCN(Cc1cc(Cl)ccc1NC(=O)c1ccccn1)C(=O)c1cc(Cl)cc(Cl)c1
- Activity [1]: 5.9
- EC50 [2]: 470 nM

Structure (SMILES): O=C(Nc1ccccc1CN1C(=O)c2ccccc2C1=O)c1ccccn1
- Activity [1]: 3.4
- EC50 [2]: 13900 nM

Structure (SMILES): O=C(Nc1ccc(F)cc1CN1C(=O)c2ccccc2C1=O)c1ccccn1
- Activity [1]: 2.6
- EC50 [2]: 1500 nM

Structure (SMILES): O=C(Nc1ccc(Cl)cc1CN1C(=O)c2ccccc2C1=O)c1ccco1
- EC50 [3]: > 1000 nM
- Activity [1]: 6.2
- EC50 [2]: 2300 nM

Structure (SMILES): O=C(Nc1ccc(Cl)cc1CN1C(=O)c2ccccc2C1=O)c1ccccc1C(F)(F)F
- EC50 [3]: > 1000 nM
- Activity [1]: 3.5
- EC50 [2]: 5700 nM

Structure (SMILES): O=C(Nc1ccc(Cl)cc1CN1C(=O)c2ccccc2C1=O)c1ccccn1 [listing 1 of 3 here]
- EC50 [2]: 250 nM

Structure (SMILES): CCOc1cccc2c1C(=O)N(Cc1cc(Cl)ccc1NC(=O)c1ccccn1)C2=O
- Activity [1]: 4.5
- EC50 [2]: 280 nM

Structure (SMILES): Cc1ccc2c(c1C)C(=O)N(Cc1cc(Br)ccc1NC(=O)c1ccccn1)C2=O
- Activity [1]: 0.6
- EC50 [2]: > 100000 nM

Structure (SMILES): COc1ccc(NC(=O)c2ccccn2)c(CN2C(=O)c3ccccc3C2=O)c1
- Activity [1]: 3.5
- EC50 [2]: 1400 nM

Structure (SMILES): O=C(Nc1ccc(Cl)cc1CN1C(=O)c2ccccc2C1=O)c1cccnc1
- EC50 [3]: > 1000 nM
- Activity [1]: 1.8
- EC50 [2]: 35000 nM

Structure (SMILES): O=C(Nc1ccc(Cl)cc1CN1C(=O)c2ccccc2C1=O)C1CCCCC1
- EC50 [3]: > 1000 nM
- Activity [1]: 4.1
- EC50 [2]: 1500 nM

Structure (SMILES): O=C(Nc1ccc(Cl)cc1CN1C(=O)c2ccccc2C1=O)c1ncccc1O
- EC50 [3]: > 1000 nM
- Activity [1]: 11.3
- EC50 [2]: 260 nM

Structure (SMILES): O=C(Nc1ccc(Cl)cc1CN1C(=O)c2ccccc2C1=O)c1ccccc1[N+](=O)[O-]
- EC50 [3]: > 1000 nM
- Activity [1]: 2.9
- EC50 [2]: 5700 nM

Structure (SMILES): O=C(Nc1cccc(F)c1CN1C(=O)c2ccccc2C1=O)c1ccccn1
- Activity [1]: 0.9
- EC50 [2]: > 100000 nM

Structure (SMILES): O=C(Nc1ccc(Cl)cc1CN1C(=O)c2ccccc2C1=O)c1ccccn1 [listing 2 of 3 here]
- EC50 ([2]; cho): 250 nM

Structure (SMILES): O=C(Nc1ccc(Cl)cc1CN1C(=O)c2ccccc2C1=O)c1cncs1
- EC50 [3]: > 1000 nM
- Activity [1]: 9.2
- EC50 [2]: 1900 nM

Structure (SMILES): COc1ccccc1C(=O)Nc1ccc(Cl)cc1CN1C(=O)c2ccccc2C1=O
- EC50 [3]: > 1000 nM
- Activity [1]: 0.6
- EC50 [2]: > 100000 nM

Structure (SMILES): O=C(Nc1ccc(Br)cc1CN1C(=O)c2ccccc2C1=O)c1ccccn1
- EC50 [3]: > 1000 nM
- Activity [1]: 7.6
- EC50 [2]: 750 nM

Structure (SMILES): O=C(Nc1ccc(Cl)cc1CN1C(=O)c2ccccc2C1=O)c1ccccn1 [listing 3 of 3 here]
- Activity [1]: 6.8

Structure (SMILES): O=C(Nc1ccc(Cl)cc1CN1C(=O)c2ccccc2C1=O)c1cccnn1
- EC50 [3]: > 1000 nM
- Activity [1]: 0.6
- EC50 [2]: > 100000 nM

Structure (SMILES): O=C(Nc1ccc(Cl)cc1CN1C(=O)c2ccccc2C1=O)c1ccccc1
- EC50 [3]: > 1000 nM
- Activity [1]: 0.6
- EC50 [2]: > 100000 nM

Structure (SMILES): O=C(/C=C/c1cc(Cl)ccc1NC(=O)c1ccccn1)c1ccccc1
- Activity [1]: 8
- EC50 [2]: 1700 nM

Structure (SMILES): COc1cccc(C(=O)Nc2ccc(Cl)cc2CN2C(=O)c3ccccc3C2=O)c1
- EC50 [3]: > 1000 nM
- Activity [1]: 1.6
- EC50 [2]: 1500 nM

Structure (SMILES): Cc1ccc2c(c1C)C(=O)N(Cc1cc(Cl)ccc1NC(=O)c1ccccn1)C2=O
- Activity [1]: 3.7
- EC50 [2]: 2200 nM

Structure (SMILES): COc1ccc2c(c1OC)C(=O)N(Cc1cc(Br)ccc1NC(=O)c1ccccn1)C2=O
- Activity [1]: 0.6
- EC50 [2]: > 100000 nM

Structure (SMILES): O=C(CCc1cc(Cl)ccc1NC(=O)c1ccccn1)c1ccccc1
- EC50 [2]: 4500 nM

Structure (SMILES): CCOc1cccc2c1C(=O)N(Cc1cc(Br)ccc1NC(=O)c1ccccn1)C2=O
- Activity [1]: 10.7
- EC50 [2]: 720 nM

Structure (SMILES): O=C(Nc1ccc(Cl)cc1CN1C(=O)c2ccccc2C1=O)c1ncccn1
- EC50 [3]: > 1000 nM
- Activity [1]: 1.3
- EC50 [2]: 2100 nM

Structure (SMILES): O=C(Nc1ccc(Cl)cc1CN1C(=O)c2ccccc2C1=O)c1ccccc1O
- Activity [1]: 7.1

Structure (SMILES): O=C(Nc1ccc(Cl)cc1CN1C(=O)c2ccc(F)cc2C1=O)c1ccccn1
- Activity [1]: 4.6
- EC50 [2]: 330 nM

Structure (SMILES): COc1ccc2c(c1OC)C(=O)N(Cc1cc(Cl)ccc1NC(=O)c1ccccn1)C2=O
- Activity [1]: 0.6
- EC50 [2]: > 100000 nM
